Reference: patent US9920063B2, “Melampomagnolide B derivatives” (Board of Trustees of the University of Arkansas, priority 2013, dated 2018)
Where two headings read alike, the source gives them in different places.

What was measured:
[1] = tested on: MDA-MB-435
[2] = tested on: BT-549
[3] = tested on: SF-268
[4] = tested on: MALME-3M
[5] = tested on: COLO 205; assay: NCI human tumor cell line panel, Colon Cancer; assay type: cell-based
[6] = tested on: SK-MEL-5
[7] = tested on: UACC-62
[8] = tested on: KM12
[9] = tested on: AML 052308 cells
Method: For each compound, in vitro cell culture studies were performed in which a range of concentrations (0.25-20 μM) was tested for cytotoxicity against leukemia cell lines, primary leukemia specimens and normal bone marrow controls.

[10] = tested on: SNB-19
[11] = tested on: NCI/ADR-RES
[12] = tested on: NCI-H322M
[13] = tested on: 786-0
[14] = tested on: ACHN
[15] = tested on: SN12C
[16] = tested on: SNB-75
[17] = tested on: HS 57BT
[18] = tested on: CCRF-CEM
[19] = tested on: MCF7

C=C1C(=O)O[C@H]2[C@H]1CC/C(COC(=O)c1cc3ccccc3[nH]1)=C\CC[C@@]1(C)O[C@@H]21 [BS-1-28]
CC50 [1]: 5850 nM
Percent Growth ([1]; MDA-MB-435, Log10 Concentration −4.0): −96%
Percent Growth ([1]; MDA-MB-435, Log10 Concentration −5.0): −76%
Percent Growth ([1]; MDA-MB-435, Log10 Concentration −6.0): 44%
Percent Growth ([1]; MDA-MB-435, Log10 Concentration −7.0): 98%
Percent Growth ([1]; MDA-MB-435, Log10 Concentration −8.0): 97%
GI50 ([1]; MDA-MB-435, NCI five dose): 763 nM
TGI ([1]; MDA-MB-435, NCI five dose): 2.28E−6
CC50 [2]: 2640 nM
Percent Growth ([2]; BT-549, Log10 Concentration −4.0): −99%
Percent Growth ([2]; BT-549, Log10 Concentration −5.0): −88%
Percent Growth ([2]; BT-549, Log10 Concentration −6.0): −22%
Percent Growth ([2]; BT-549, Log10 Concentration −7.0): 14%
Percent Growth ([2]; BT-549, Log10 Concentration −8.0): −30%
GI50 ([2]; BT-549, NCI five dose): < 10 nM
GI50 ([2]; BT-549 breast cancer cell line): < 10 nM
CC50 [3]: 6500 nM
Percent Growth ([3]; SF-268, Log10 Concentration −4.0): −85%
Percent Growth ([3]; SF-268, Log10 Concentration −5.0): −81%
Percent Growth ([3]; SF-268, Log10 Concentration −6.0): 83%
Percent Growth ([3]; SF-268, Log10 Concentration −7.0): 96%
Percent Growth ([3]; SF-268, Log10 Concentration −8.0): 98%
GI50 ([3]; SF-268, NCI five dose): 1590 nM
TGI ([3]; SF-268, NCI five dose): 3.22E−6
CC50 [4]: 6070 nM
Percent Growth ([4]; MALME-3M, Log10 Concentration −4.0): −82%
Percent Growth ([4]; MALME-3M, Log10 Concentration −5.0): −87%
Percent Growth ([4]; MALME-3M, Log10 Concentration −6.0): 82%
Percent Growth ([4]; MALME-3M, Log10 Concentration −7.0): 91%
Percent Growth ([4]; MALME-3M, Log10 Concentration −8.0): 91%
GI50 ([4]; MALME-3M, NCI five dose): 1560 nM
TGI ([4]; MALME-3M, NCI five dose): 3.07E−6
Percent Growth ([5]; Log10 Concentration −4.0): −63%
Percent Growth ([5]; Log10 Concentration −5.0): −61%
Percent Growth ([5]; Log10 Concentration −6.0): 39%
Percent Growth ([5]; Log10 Concentration −7.0): 60%
Percent Growth ([5]; Log10 Concentration −8.0): 27%
TGI ([5]; NCI five dose): 2.44E−6
CC50 [6]: 5120 nM
Percent Growth ([6]; SK-MEL-5, Log10 Concentration −4.0): −95%
Percent Growth ([6]; SK-MEL-5, Log10 Concentration −5.0): −98%
Percent Growth ([6]; SK-MEL-5, Log10 Concentration −6.0): 67%
Percent Growth ([6]; SK-MEL-5, Log10 Concentration −7.0): 92%
Percent Growth ([6]; SK-MEL-5, Log10 Concentration −8.0): 96%
GI50 ([6]; SK-MEL-5, NCI five dose): 1260 nM
TGI ([6]; SK-MEL-5, NCI five dose): 2.54E−6
CC50 [7]: 6980 nM
Percent Growth ([7]; UACC-62, Log10 Concentration −4.0): −15%
Percent Growth ([7]; UACC-62, Log10 Concentration −5.0): −73%
Percent Growth ([7]; UACC-62, Log10 Concentration −6.0): 75%
Percent Growth ([7]; UACC-62, Log10 Concentration −7.0): 91%
Percent Growth ([7]; UACC-62, Log10 Concentration −8.0): 97%
GI50 ([7]; UACC-62, NCI five dose): 1470 nM
TGI ([7]; UACC-62, NCI five dose): 3.21E−6
CC50 [8]: 15600 nM
Percent Growth ([8]; KM12, Log10 Concentration −4.0): −82%
Percent Growth ([8]; KM12, Log10 Concentration −5.0): −42%
Percent Growth ([8]; KM12, Log10 Concentration −6.0): 92%
Percent Growth ([8]; KM12, Log10 Concentration −7.0): 96%
Percent Growth ([8]; KM12, Log10 Concentration −8.0): 93%
GI50 ([8]; KM12, NCI five dose): 2050 nM
TGI ([8]; KM12, NCI five dose): 4.84E−6
Fold more cytotoxic than MMB [9]: around 7 fold
CC50 [10]: 7330 nM
Percent Growth ([10]; SNB-19, Log10 Concentration −4.0): −64%
Percent Growth ([10]; SNB-19, Log10 Concentration −5.0): −70%
Percent Growth ([10]; SNB-19, Log10 Concentration −6.0): 81%
Percent Growth ([10]; SNB-19, Log10 Concentration −7.0): 92%
Percent Growth ([10]; SNB-19, Log10 Concentration −8.0): 57%
GI50 ([10]; SNB-19, NCI five dose): 1600 nM
TGI ([10]; SNB-19, NCI five dose): 3.93E−6
CC50 [11]: > 100000 nM
Percent Growth ([11]; NCl/ADR-RES, Log10 Concentration −4.0): −43%
Percent Growth ([11]; NCl/ADR-RES, Log10 Concentration −5.0): −2%
Percent Growth ([11]; NCl/ADR-RES, Log10 Concentration −6.0): 77%
Percent Growth ([11]; NCl/ADR-RES, Log10 Concentration −7.0): 100%
Percent Growth ([11]; NCl/ADR-RES, Log10 Concentration −8.0): 99%
GI50 ([11]; NCl/ADR-RES, NCI five dose): 2200 nM
TGI ([11]; NCl/ADR-RES, NCI five dose): 9.42E−6
CC50 [12]: 6470 nM
Percent Growth ([12]; NCI-H322M, Log10 Concentration −4.0): −89%
Percent Growth ([12]; NCI-H322M, Log10 Concentration −5.0): −82%
Percent Growth ([12]; NCI-H322M, Log10 Concentration −6.0): 88%
Percent Growth ([12]; NCI-H322M, Log10 Concentration −7.0): 95%
Percent Growth ([12]; NCI-H322M, Log10 Concentration −8.0): 81%
GI50 ([12]; NCI-H322M, NCI five dose): 1680 nM
TGI ([12]; NCI-H322M, NCI five dose): 3.29E−6
CC50 [13]: 9010 nM
Percent Growth ([13]; 786-0, Log10 Concentration −4.0): −94%
Percent Growth ([13]; 786-0, Log10 Concentration −5.0): −90%
Percent Growth ([13]; 786-0, Log10 Concentration −6.0): 11%
Percent Growth ([13]; 786-0, Log10 Concentration −7.0): 102%
Percent Growth ([13]; 786-0, Log10 Concentration −8.0): 96%
GI50 ([13]; 786-0, NCI five dose): 371 nM
TGI ([13]; 786-0, NCI five dose): 1.28E−6
CC50 [14]: 4220 nM
Percent Growth ([14]; ACHN, Log10 Concentration −4.0): −95%
Percent Growth ([14]; ACHN, Log10 Concentration −5.0): −91%
Percent Growth ([14]; ACHN, Log10 Concentration −6.0): 19%
Percent Growth ([14]; ACHN, Log10 Concentration −7.0): 55%
Percent Growth ([14]; ACHN, Log10 Concentration −8.0): 76%
GI50 ([14]; ACHN, NCI five dose): 342 nM
TGI ([14]; ACHN, NCI five dose): 1.49E−6
CC50 [15]: 90500 nM
Percent Growth ([15]; SN12C, Log10 Concentration −4.0): −59%
Percent Growth ([15]; SN12C, Log10 Concentration −5.0): −35%
Percent Growth ([15]; SN12C, Log10 Concentration −6.0): 77%
Percent Growth ([15]; SN12C, Log10 Concentration −7.0): 71%
Percent Growth ([15]; SN12C, Log10 Concentration −8.0): 60%
GI50 ([15]; SN12C, NCI five dose): 1140 nM
TGI ([15]; SN12C, NCI five dose): 4.83E−6
CC50 [16]: 4720 nM
Percent Growth ([16]; SNB-75, Log10 Concentration −4.0): −58%
Percent Growth ([16]; SNB-75, Log10 Concentration −5.0): −98%
Percent Growth ([16]; SNB-75, Log10 Concentration −6.0): 50%
Percent Growth ([16]; SNB-75, Log10 Concentration −7.0): 77%
Percent Growth ([16]; SNB-75, Log10 Concentration −8.0): 72%
GI50 ([16]; SNB-75, NCI five dose): 1010 nM
TGI ([16]; SNB-75, NCI five dose): 2.19E−6
CC50 [17]: > 100000 nM
Percent Growth ([17]; HS 57BT, Log10 Concentration −4.0): −20%
Percent Growth ([17]; HS 57BT, Log10 Concentration −5.0): −5%
Percent Growth ([17]; HS 57BT, Log10 Concentration −6.0): 78%
Percent Growth ([17]; HS 57BT, Log10 Concentration −7.0): 84%
Percent Growth ([17]; HS 57BT, Log10 Concentration −8.0): 47%
TGI ([17]; HS 57BT, NCI five dose): 8.71E−6
CC50 [18]: > 100000 nM
Percent Growth ([18]; CCRF-CEM, Log10 Concentration −4.0): −37%
Percent Growth ([18]; CCRF-CEM, Log10 Concentration −5.0): −15%
Percent Growth ([18]; CCRF-CEM, Log10 Concentration −6.0): 3%
Percent Growth ([18]; CCRF-CEM, Log10 Concentration −7.0): 90%
Percent Growth ([18]; CCRF-CEM, Log10 Concentration −8.0): 99%
GI50 ([18]; CCRF-CEM, NCI five dose): 286 nM
TGI ([18]; CCRF-CEM, NCI five dose): 1.45E−6
GI50 ([18]; leukemia cell line CCRF-CEM): 288 nM
CC50 [19]: 6690 nM
Percent Growth ([19]; MCF7, Log10 Concentration −4.0): −56%
Percent Growth ([19]; MCF7, Log10 Concentration −5.0): −63%
Percent Growth ([19]; MCF7, Log10 Concentration −6.0): 11%
Percent Growth ([19]; MCF7, Log10 Concentration −7.0): 88%
Percent Growth ([19]; MCF7, Log10 Concentration −8.0): 63%
GI50 ([19]; MCF7, NCI five dose): 302 nM
TGI ([19]; MCF7, NCI five dose): 1.39E−6
